{"source": "paper PMC5479785", "about": "“Tandem malonate-based glucosides (TMGs) for membrane protein structural studies” (Scientific Reports, 2017)", "key": {"[1]": {"target": "T1, β2AR (Homo sapiens, UniProt P07550)", "T1 construct": "gene ADRB2; expressed in Sf9 insect cells (baculovirus), purified in DDM", "T1 sequence (P07550 whole entry)": "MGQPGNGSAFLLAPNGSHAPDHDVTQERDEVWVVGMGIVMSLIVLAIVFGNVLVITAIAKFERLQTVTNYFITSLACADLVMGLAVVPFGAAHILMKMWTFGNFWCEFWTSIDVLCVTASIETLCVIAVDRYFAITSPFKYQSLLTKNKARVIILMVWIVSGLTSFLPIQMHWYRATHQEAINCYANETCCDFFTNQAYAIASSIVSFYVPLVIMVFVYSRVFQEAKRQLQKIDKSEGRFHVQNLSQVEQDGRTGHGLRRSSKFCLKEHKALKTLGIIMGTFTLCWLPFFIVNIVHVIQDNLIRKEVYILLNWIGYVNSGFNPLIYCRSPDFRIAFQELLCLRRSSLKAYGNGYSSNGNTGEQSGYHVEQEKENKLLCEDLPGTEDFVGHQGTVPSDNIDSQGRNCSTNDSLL", "assay": "radioligand binding, G-50 column separation", "conditions": "10 nM [3H]-DHA, 20 mM HEPES pH 7.5, 100 mM NaCl, 0.5 mg/mL BSA, DDM or TMG detergent; antagonist; labelled compound"}, "[2]": {"target": "T2, MelBSt (Salmonella enterica, UniProt P30878)", "T2 construct": "gene melB; wild type, C-terminal 10-His tag, plasmid pK95ΔAHB/WT MelBSt/CH10; detergent extract of RSO vesicles of E. coli DW2", "T2 sequence (P30878 whole entry)": "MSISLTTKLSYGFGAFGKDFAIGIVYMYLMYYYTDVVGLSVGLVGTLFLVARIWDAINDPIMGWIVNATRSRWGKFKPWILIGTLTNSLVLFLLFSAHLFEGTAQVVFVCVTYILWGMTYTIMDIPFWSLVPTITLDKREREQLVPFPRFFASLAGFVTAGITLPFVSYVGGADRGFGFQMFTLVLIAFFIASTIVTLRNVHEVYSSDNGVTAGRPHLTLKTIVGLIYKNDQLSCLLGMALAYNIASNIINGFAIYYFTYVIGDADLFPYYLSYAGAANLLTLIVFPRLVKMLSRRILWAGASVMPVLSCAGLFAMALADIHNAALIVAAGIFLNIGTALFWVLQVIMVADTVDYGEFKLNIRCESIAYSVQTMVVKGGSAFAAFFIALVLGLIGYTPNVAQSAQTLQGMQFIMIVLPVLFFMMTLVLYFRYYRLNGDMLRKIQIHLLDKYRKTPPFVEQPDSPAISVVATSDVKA", "assay": "Trp to D2G FRET in detergent extract of membrane vesicles", "type": "biochemical", "conditions": "10 μM D2G, 100 mM KPi, 100 mM NaCl, pH 7.5, DDM; fluorescent ligand"}, "[3]": {"target": "T3, MelBEc (Escherichia coli, UniProt P02921)", "T3 construct": "gene melB; expressed in E. coli DW2 (ΔmelB ΔlacZY); detergent extract of RSO membrane vesicles", "T3 sequence (P02921 2-473)": "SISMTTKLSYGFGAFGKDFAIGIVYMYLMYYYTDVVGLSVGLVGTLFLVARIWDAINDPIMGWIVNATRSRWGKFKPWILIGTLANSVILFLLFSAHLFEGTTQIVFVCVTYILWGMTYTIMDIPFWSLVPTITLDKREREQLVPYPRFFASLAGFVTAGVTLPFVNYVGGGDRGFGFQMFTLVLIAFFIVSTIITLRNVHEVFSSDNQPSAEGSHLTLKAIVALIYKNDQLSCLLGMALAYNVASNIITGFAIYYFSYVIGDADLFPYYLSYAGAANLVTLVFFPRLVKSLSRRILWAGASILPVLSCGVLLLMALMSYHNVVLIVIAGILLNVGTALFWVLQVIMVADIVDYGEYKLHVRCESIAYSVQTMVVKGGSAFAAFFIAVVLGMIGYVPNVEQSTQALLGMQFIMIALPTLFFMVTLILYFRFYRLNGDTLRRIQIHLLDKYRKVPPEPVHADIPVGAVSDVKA", "assay": "Trp to D2G FRET in detergent extract of membrane vesicles", "type": "biochemical", "conditions": "10 μM D2G, 100 mM KPi, 100 mM NaCl, pH 7.5, TMG-A12 or TMG-A13; fluorescent ligand"}, "[4]": {"target": "T3, MelBEc", "assay": "reversal of Trp to D2G FRET by displacement", "type": "biochemical", "conditions": "excess melibiose against 10 μM D2G, 100 mM KPi, 100 mM NaCl, pH 7.5, TMG-A12 or TMG-A13; competitive"}, "[5]": {"target": "T2, MelBSt", "assay": "reversal of Trp to D2G FRET by displacement", "type": "biochemical", "conditions": "excess melibiose against 10 μM D2G, 100 mM KPi, 100 mM NaCl, pH 7.5, DDM; competitive"}}}
{"smiles": "CCCc1ccccc1OCC(O)CNC(C)C", "note": "(centres unmarked) [[3H]-dihydroalprenolol]", "values": [{"measurement": "[3H]-DHA binding", "setting": "[1]", "result": "receptor stability was assessed via a ligand binding assay using the antagonist, [^3H]-dihydroalprenolol"}]}
{"smiles": "CN(C)c1cccc2c(S(=O)(=O)NCCS[C@@H]3O[C@H](CO)[C@H](O)[C@H](O)[C@H]3O)cccc12", "note": "[D2G, 2′-(N-dansyl)aminoalkyl-1-thio-β-D-galactopyranoside]", "values": [{"measurement": "Trp→D2G FRET", "setting": "[2]", "result": "a functional MelBSt gives an increase in fluorescence intensity induced by Trp→ D^2G FRET"}, {"measurement": "Trp→D2G FRET", "setting": "[3]", "result": "TMG-A12 or TMG-A13 resulted in a functional MelBEc as demonstrated by large changes in FRET signal"}]}
{"smiles": "OC[C@H]1O[C@H](OC[C@H]2OC(O)[C@H](O)[C@@H](O)[C@@H]2O)[C@H](O)[C@@H](O)[C@H]1O", "note": "(some centres unmarked) [melibiose]", "values": [{"measurement": "FRET reversal", "setting": "[4]", "result": "reversed by adding a non-fluorescent sugar substrate (i.e., melibiose)"}, {"measurement": "FRET reversal", "setting": "[5]", "result": "Upon addition of melibiose, the DDM-solubilized MelBSt gave a large reversal in the FRET signal"}]}
